{
  "source": "patent US20050074844A1",
  "about": "“Methods for identifying markers of antimicrobial compounds” (priority 2002, published 2005)",
  "key": {"[1]": {"test_system": "Bacillus subtilis strain BGSC1A2", "assay": "Cell viability (colony forming units per ml) of cultures treated with sub-inhibitory antibiotic concentrations", "format": "cell-based", "details": "for colony forming units or viability: all sub-inhibitory concentrations tested (Table 3), versus untreated cultures", "experimental": "[…] The shake flasks were incubated at 37° C. and 200 rpm. At times 5, 15, 30 and 60 minutes after antibiotic addition, 100 ml and 1.1 ml samples were taken from each shake flask and processed as described above. After the 60 minute time point, 1.1 ml aliquots from each shake flask were taken every hour for four hours for optical density and cell viability measurements.\nCell viability was determined on all the samples by determining colony forming units per ml. Samples collected were diluted in MHB to obtain 10 to 500 colonies per plate as follows: samples collected at t=0 were diluted at 1:100,000; t=5 minutes, dilution was 1:150,000; t=15 minutes, dilution was 1:200,000; t=30 minutes, dilution was 1:250,000; t=1 hour, dilution was 1:300,000; t=1.5 hours, dilution was 1:400,000; t=2.5 hours, dilution was 1:800,000; and t=3.5 hours, dilution was 1:1,000,000. These dilutions factors can be changed as indicated by the response to the antibiotic being tested. For each diluted sample 20 μl and 40 μl aliquots were spread onto each of two pre-warmed LB agar plates, which were incubated overnight at 37° C. The number of colonies on each plate was counted to determine the colony forming units per ml of each sample."}, "[2]": {"test_system": "Bacillus subtilis strain BGSC1A2", "assay": "Growth curve (optical density at 600 nm) of shake flask cultures treated with sub-inhibitory antibiotic concentrations", "format": "cell-based", "details": "for growth rate as measured by optical density at 600 nm: all sub-inhibitory concentrations tested (Table 3), versus untreated cultures", "experimental": "Bacillus subtilis strain BGSC1A2 was streaked onto a LB agar plate and incubated overnight at 37° C. The cultured plate was stored at room temperature for up to one week. Fifty ml of MHB medium in a 250 ml flask was inoculated with one colony from the plate. The culture was incubated overnight at 37° C. and 200 rpm.\nA 30.7 ml sample of the overnight culture was used to inoculate 3.6 liters of MHB medium pre-warmed at 37° C. After mixing the culture well, 600 ml aliquots were removed and placed into each of six 2.8 liter baffled shake flasks. A 1 ml sample of each flask was taken for optical density measurement at 600 nm, and the shake flasks were incubated at 37° C. and 200 rpm. One ml samples were taken from each flask every 30 minutes until the OD600 reached 0.2. At this point, which was designated time zero, 100 ml samples from each shake flask were taken, and 50 ml aliquots were placed in each of two 50 ml centrifuge tubes. In addition, 1.1 ml aliquots were taken from each flask with 1 ml used for an optical density measurement at 600 nm and 50 μl of each was placed in a microfuge tube at 4° C. The 50 ml samples were processed immediately by centrifugation at 4000 rpm at 4° C. for 7 minutes, and after centrifugation the supernatant was decanted being careful not to disturb the pellet which was immediately placed at −80° C. for total RNA isolation at a later time.\nAt time zero, different sub-inhibitory concentrations (0.1-1×MIC) of a given antibiotic were added to three of the shake flasks (Table 2) and the other three shake flasks were untreated. The shake flasks were incubated at 37° C. and 200 rpm. At times 5, 15, 30 and 60 minutes after antibiotic addition, 100 ml and 1.1 ml samples were taken from each shake flask and processed as described above. After the 60 minute time point, 1.1 ml aliquots from each shake flask were taken every hour for four hours for optical density and cell viability measurements."}, "[3]": {"test_system": "Bacillus subtilis BGSC1A2", "assay": "microbe, parasite or virus in culture", "experimental": "Microbroth dilution assays were performed as described in NCCLS M7-A5 (Vol. 20, No. 2). The assay was performed in a sterile 96 well plate, and the total volume per well was 100 μl. […] The inoculum was prepared by culturing Bacillus subtilis BGSC1A2 overnight in MHB medium at 35° C. with shaking at 200 rpm. The following day 0.5 ml of the overnight culture was used to inoculate MHB medium to obtain a culture in logarithmic phase growth as described in NCCLS M7-A5 (Vol. 20, No. 2) and M26-A (Vol. 19, No. 18). The actual colony forming units per well was confirmed by plating onto TSA or LB agar. Two wells were inoculated for a given concentration. The plates were incubated for 16 to 20 hours at 35° C. The MIC was defined as that concentration of antibiotic resulting in no visible growth of the organism."}, "[4]": {"test_system": "Bacillus subtilis strain BGSC1A2", "assay": "Growth curve (optical density at 600 nm) of shake flask cultures treated with sub-inhibitory antibiotic concentrations", "format": "cell-based", "details": "0.01 and 0.02 x MIC (0.0025 and 0.005 μg/ml)"}},
  "note": "Where a SMILES comes first, the peptide text is derived from it.",
  "data": [
    {"compound": "CC(=O)OCC1=C(C(=O)O)N2C(=O)[C@@H](NC(=O)Cc3cccs3)[C@H]2SC1", "note": "[cephalothin]", "values": [
      {"measurement": "colony forming units or viability", "setting": "[1]", "result": "decrease in colony forming units or viability"},
      {"measurement": "growth rate as measured by optical density", "setting": "[2]; 0.00156 μg/ml (0.1 x MIC)", "result": "very little effect, if any"},
      {"measurement": "growth rate as measured by optical density", "setting": "[2]; 0.0078 μg/ml (0.50 x MIC)", "result": "moderate decrease"},
      {"measurement": "growth rate as measured by optical density", "setting": "[2]; 0.0156 μg/ml (1.0 x MIC)", "result": "large"},
      {"measurement": "MIC", "setting": "[3]; Bacillus subtilis, BGSC1A2", "result": "0.0156 to 0.0625", "unit": "µg/mL"}
    ]},
    {"compound": "O=C(N[C@H](CO)[C@H](O)c1ccc([N+](=O)[O-])cc1)C(Cl)Cl", "note": "[chloramphenicol]", "values": [
      {"measurement": "MIC", "setting": "[3]; Bacillus subtilis, BGSC1A2", "result": "2 to 4", "unit": "µg/mL"}
    ]},
    {"compound": "O=C(O)c1cn(C2CC2)c2cc(N3CCNCC3)c(F)cc2c1=O", "note": "[ciprofloxacin]", "values": [
      {"measurement": "colony forming units or viability", "setting": "[1]", "result": "decrease in colony forming units or viability"}
    ]},
    {"compound": "CC[C@H]1OC(=O)[C@H](C)[C@@H](O[C@H]2C[C@@](C)(OC)[C@@H](O)[C@H](C)O2)[C@H](C)[C@@H](O[C@@H]2O[C@H](C)C[C@H](N(C)C)[C@H]2O)[C@](C)(O)C[C@@H](C)C(=O)[C@H](C)[C@@H](O)[C@]1(C)O", "note": "[erythromycin]", "values": [
      {"measurement": "colony forming units or viability", "setting": "[1]", "result": "decrease in colony forming units or viability"},
      {"measurement": "growth rate as measured by optical density at 600 nm", "setting": "[2]", "result": "decrease in growth rate that was dose dependent"},
      {"measurement": "MIC", "setting": "[3]; Bacillus subtilis, BGSC1A2", "result": "0.125 to 0.25", "unit": "µg/mL"}
    ]},
    {"compound": "CC(C)C[C@@H](NC(=O)[C@H](C)NC(=O)CNC(=O)[C@@H](NC=O)C(C)C)C(=O)N[C@@H](C)C(=O)N[C@@H](C(=O)N[C@H](C(=O)N[C@@H](C(=O)N[C@@H](Cc1c[nH]c2ccccc12)C(=O)N[C@H](CC(C)C)C(=O)N[C@@H](Cc1c[nH]c2ccccc12)C(=O)N[C@H](CC(C)C)C(=O)N[C@@H](Cc1c[nH]c2ccccc12)C(=O)N[C@H](CC(C)C)C(=O)N[C@@H](Cc1c[nH]c2ccccc12)C(=O)NCCO)C(C)C)C(C)C)C(C)C", "note": "[gramicidin A] (HELM PEPTIDE1{[O=C[*:2]].V.G.A.[dL].A.[dV].V.[dV].W.[dL].W.[dL].W.[dL].W.[OCCN[*:1]]}$$$$V2.0; N-terminus and C-terminus assumed)", "values": [
      {"measurement": "MIC", "setting": "[3]; BGSC1A2", "result": 8.0, "unit": "µg/mL"}
    ]},
    {"compound": "CCn1cc(C(=O)O)c(=O)c2ccc(C)nc21", "note": "[nalidixic acid]", "values": [
      {"measurement": "MIC", "setting": "[3]; Bacillus subtilis, BGSC1A2", "result": 4, "unit": "µg/mL"}
    ]},
    {"compound": "CCn1cc(C(=O)O)c(=O)c2cc(F)c(N3CCNCC3)cc21", "note": "[norfloxacin]", "values": [
      {"measurement": "colony forming units or viability", "setting": "[1]", "result": "decrease in colony forming units or viability"},
      {"measurement": "growth rate as measured by optical density at 600 nm", "setting": "[2]", "result": "very little effect, if any"},
      {"measurement": "MIC", "setting": "[3]; Bacillus subtilis, BGSC1A2", "result": 0.5, "unit": "µg/mL"}
    ]},
    {"compound": "CO[C@@H]1[C@@H](OC(N)=O)[C@@H](O)[C@H](Oc2ccc3c(O)c(NC(=O)c4ccc(O)c(CC=C(C)C)c4)c(=O)oc3c2C)OC1(C)C", "note": "[novobiocin]", "values": [
      {"measurement": "MIC", "setting": "[3]; Bacillus subtilis, BGSC1A2", "result": 2, "unit": "µg/mL"}
    ]},
    {"compound": "CO[C@H]1/C=C/O[C@@]2(C)Oc3c(C)c(O)c4c(O)c(c(/C=N/N5CCN(C)CC5)c(O)c4c3C2=O)NC(=O)/C(C)=C\\C=C\\[C@H](C)[C@H](O)[C@@H](C)[C@@H](O)[C@@H](C)[C@H](OC(C)=O)[C@@H]1C", "note": "[rifampin]", "values": [
      {"measurement": "colony forming units", "setting": "[1]; 0.01 or 0.02 x MIC (0.0025 and 0.005 μg/ml)", "result": "no effect on colony forming units"},
      {"measurement": "growth rate as measured by optical density", "setting": "[4]", "result": "very little effect if any"},
      {"measurement": "MIC", "setting": "[3]; Bacillus subtilis, BGSC1A2", "result": "0.25 to 0.5", "unit": "µg/mL"}
    ]},
    {"compound": "[H]/N=C(/N)N[C@H]1[C@H](O)[C@@H](O)[C@H](O[C@@H]2O[C@@H](C)[C@](O)(C=O)[C@H]2O[C@@H]2O[C@@H](CO)[C@H](O)[C@@H](O)[C@@H]2NC)[C@@H](N/C(N)=N\\[H])[C@@H]1O", "note": "[streptomycin]", "values": [
      {"measurement": "colony forming units or viability", "setting": "[1]", "result": "decrease in colony forming units or viability"},
      {"measurement": "growth rate as measured by optical density", "setting": "[2]; 0.8 μg/ml (0.1 x MIC)", "result": "growth rate similar to the untreated cultures"},
      {"measurement": "growth rate as measured by optical density", "setting": "[2]; 4.0 μg/ml (0.50 x MIC)", "result": "moderate decrease in growth rate"},
      {"measurement": "growth rate as measured by optical density", "setting": "[2]; 8.0 μg/ml (1.0 x MIC)", "result": "large"},
      {"measurement": "MIC", "setting": "[3]; Bacillus subtilis, BGSC1A2", "result": "4 to 8", "unit": "µg/mL"}
    ]},
    {"compound": "COc1cc(Cc2cnc(N)nc2N)cc(OC)c1OC", "note": "[trimethoprim]", "values": [
      {"measurement": "colony forming units or viability", "setting": "[1]", "result": "did not lead to a change in colony forming units or viability"},
      {"measurement": "growth rate as measured by optical density at 600 nm", "setting": "[2]", "result": "did not have an effect on growth rate"},
      {"measurement": "MIC", "setting": "[3]; Bacillus subtilis, BGSC1A2", "result": 0.25, "unit": "µg/mL"}
    ]},
    {"compound": "CN[C@H](CC(C)C)C(=O)N[C@H]1C(=O)N[C@@H](CC(N)=O)C(=O)N[C@H]2C(=O)N[C@H]3C(=O)N[C@H](C(=O)N[C@H](C(=O)O)c4cc(O)cc(O)c4-c4cc3ccc4O)[C@H](O)c3ccc(c(Cl)c3)Oc3cc2cc(c3O[C@@H]2O[C@H](CO)[C@@H](O)[C@H](O)[C@H]2O[C@H]2C[C@](C)(N)[C@H](O)[C@H](C)O2)Oc2ccc(cc2Cl)[C@H]1O", "note": "[vancomycin]", "values": [
      {"measurement": "colony forming units or viability", "setting": "[1]", "result": "no effect on viability"},
      {"measurement": "growth rate as measured by optical density at 600 nm", "setting": "[2]", "result": "very little effect, if any"},
      {"measurement": "MIC", "setting": "[3]; Bacillus subtilis, BGSC1A2", "result": "0.125 to 0.25", "unit": "µg/mL"}
    ]},
    {"compound": "gentamicin", "values": [
      {"measurement": "colony forming units or viability", "setting": "[1]", "result": "decrease in colony forming units or viability"},
      {"measurement": "growth rate as measured by optical density at 600 nm", "setting": "[2]", "result": "very little effect if any"},
      {"measurement": "MIC", "setting": "[3]; no visible growth after 16 to 20 hours at 35° C., MHB medium", "result": "0.125 to 0.25", "unit": "µg/mL"}
    ]},
    {"compound": "munumbicin B", "values": [
      {"measurement": "colony forming units or viability", "setting": "[1]", "result": "decrease in colony forming units or viability"}
    ]}
  ]
}
